Measurements from patent US20230405078A1, “DETECTION AND TREATMENT OF INTESTINAL FIBROSIS” (THE REGENTS OF THE UNIVERSITY OF CALIFORNIA, priority 2020, published 2023).

Assays:
[1] = system: mouse RAW264.7 macrophages; assay: TNFα secretion in RAW264.7 macrophages; format: cell-based; details: elafin 10-1000 ng/ml, 6 h
Description: Mouse RAW264.7 macrophages (#TIB-71, ATCC) were cultured in Dulbecco's modified Eagle's medium (DMEM) (#11965-084, ThermoFisher) with 10% fetal bovine serum (FBS) (#10437-028, Life Technologies) and 1% penicillin/streptomycin/glutamine (P/S/G) (#10378-016, Life Technologies) mixture. The macrophages were serum-starved overnight, followed by exposure to fatty acid-free bovine serum albumin (BSA) (A7030, Sigma), sodium palmitate (P9767, Sigma), or lipopolysaccharide (LPS) (L5418, Sigma) for 2 h, and then the addition of elafin (10-1000 ng/ml) for additional 6 h. The cell-conditioned media were used for mouse TNFα ELISA (DY410, R&D Systems).

[2] = system: primary human intestinal fibroblasts from CD patients; assay: Elafin exposure of primary human intestinal fibroblasts from CD patients (Example 1); format: cell-based; details: elafin 24 hours
Description: FIG. 6. Elafin promotes fibrogenesis in human colonic fibroblasts. (A) The human colonic CCD-18Co fibroblasts were incubated with 100 μl/ml (10%) of human sera from normal, stricturing CD, and non-stricturing CD patients in serum-free DMEM for 24 hours. (B) The human colonic CCD-18Co fibroblasts were incubated with 100 μl/ml (10%) of human sera from high elafin CD group (>8000 pg/ml) and low elafin CD group (<8000 pg/ml) in serum-free DMEM for 24 hours. (C) Serum-starved CCD-18Co fibroblasts were pretreated with 15 μg/ml of anti-elafin neutralizing antibody or control antibody for 30 minutes, followed by exposure to (100 μl/ml) human sera from normal and stricturing CD patients for 24 hours. Six serum donors per group. […] Pro-COL1A1 protein levels in cell lysates were determined by ELISA. (E) Serum-starved primary human intestinal fibroblasts from CD patients were exposed to elafin for 24 hours. mRNA expression was determined by real-time RT-PCR. […]
Total RNA was isolated by an RNeasy kit (#74104, Qiagen) and reverse transcribed into cDNA by a high-capacity cDNA RT kit (#4368813, ThermoFisher). Quantitative PCR reactions were run with Fast Universal PCR master mix (#4352042, ThermoFisher) in a Bio-Rad CFX384 system. […] Relative mRNA quantification was performed by comparing test groups and normal control group, after normalization with endogenous control gene human 18S (Hs99999901_s1).

[3] = system: SAMP1/YitFc mice; assay: Spontaneous ileal fibrosis in SAMP1/YitFc mice; format: in vivo; details: SAMP1/YitFc model
Description: Eight-week-old male and female SAMP1/YitFc mice (#009355) and normal AKR strain control mice (#000648) were purchased from Jackson Laboratories. SAMP1/YitFc mice developed spontaneous ileal inflammation and fibrosis at 40 weeks of age.
Some groups were treated with antibiotics mixture in drinking water ad libitum from 10 to 42 weeks of age. Others received a single intraperitoneal injection (1×10^7 infectious units/mouse) of either control lentivirus or elafin-expressing lentivirus (RC203136L1V, Origene) at 40-weeks of age. Ileal tissues were collected for analysis two weeks after the lentiviral injection.
H&E and Masson Trichrome (MT) staining were performed as described previously. Microphotographs were recorded at multiple locations and scored by two investigators blindly. Intestinal injuries were scored (0-12). The severity of intestinal fibrosis was assessed by MT staining and scored (0-3). ZEB1 immunohistochemistry was performed using an anti-ZEB1 antibody (HPA027524, Sigma).
Total RNA was isolated by an RNeasy kit (#74104, Qiagen) and reverse transcribed into cDNA by a high-capacity cDNA reverse transcription kit (#4368813, ThermoFisher). […] Relative mRNA/miRNA quantification was performed by comparing test groups and control groups after normalization with endogenous control genes. The fold changes are expressed as 2^ΔΔCt. […]

Elafin: small (6 kDa) human elastase-specific protease inhibitor and antimicrobial peptide; active form SEQ ID NO: 2 (AQEPVKGPVSTKPGSCPIILIRCAMLNPPNRCLKDTDCPGIKKCCEGSCGMACFVPQ; listed as Homo sapiens)
LPS- and palmitate-induced TNFα secretion [1]: did not affect | collagen (COL3A1 and COL1A2), ACTA2 and TGF-b1 mRNA expression [2]: increased | overall disease activity [3]: 7%
